Test results taken from the kinase profiling compilation of Christmann-Franck et al. (2016).

Key:
Assay in all cases: radiometric filter-binding kinase assay, Kinase HotSpot
Conditions in all cases: compound 0.5 µM; ATP 10 µM
FLT3 (human) = FLT3 (human) (UniProt P36888)
PAK4 (human) = PAK4 (human) (UniProt O96013)
GRK7 (human) = GRK7 (human) (UniProt Q8WTQ7)
DDR2 (human) = DDR2 (human) (UniProt Q16832)
[1] = target: TYK2 JH1 catalytic (human) (UniProt P29597)
PDGFRB (human) = PDGFRB (human) (UniProt P09619)
SLK (human) = SLK (human) (UniProt Q9H2G2)
MAPKAPK2 (human) = MAPKAPK2 (human) (UniProt P49137)
CAMKK1 (human) = CAMKK1 (human) (UniProt Q8N5S9)
MAPKAPK5 (human) = MAPKAPK5 (human) (UniProt Q8IW41)
BLK (human) = BLK (human) (UniProt P51451)
DSTYK (human) = DSTYK (human) (UniProt Q6XUX3)
CDK5 CDK5R1 p25 (human) = CDK5 CDK5R1 p25 (human) (UniProt Q00535+Q15078)
NTRK1 (human) = NTRK1 (human) (UniProt P04629)
CDK2 CCNA2 (human) = CDK2 CCNA2 (human) (UniProt P24941+P20248)
MAPK3 (human) = MAPK3 (human) (UniProt P27361)
JAK2 JH1 JH2 (human) = JAK2 JH1 JH2 (human) (UniProt O60674)
CSNK1G3 (human) = CSNK1G3 (human) (UniProt Q9Y6M4)
STK11 (human) = STK11 (human) (UniProt Q15831)
FGFR1 (human) = FGFR1 (human) (UniProt P11362)
PTK2 (human) = PTK2 (human) (UniProt Q05397)
RPS6KA5 KD2 (human) = RPS6KA5 KD2 (human) (UniProt O75582)
PRKD2 (human) = PRKD2 (human) (UniProt Q9BZL6)
PRKCE (human) = PRKCE (human) (UniProt Q02156)
TXK (human) = TXK (human) (UniProt P42681)
PDPK1 (human) = PDPK1 (human) (UniProt O15530)
PHKG2 (human) = PHKG2 (human) (UniProt P15735)
CAMK2B (human) = CAMK2B (human) (UniProt Q13554)
HIPK1 (human) = HIPK1 (human) (UniProt Q86Z02)
RPS6KA4 KD2 (human) = RPS6KA4 KD2 (human) (UniProt O75676)
FES (human) = FES (human) (UniProt P07332)
LIMK1 (human) = LIMK1 (human) (UniProt P53667)
MAP2K1 (human) = MAP2K1 (human) (UniProt Q02750)
PDGFRA (human) = PDGFRA (human) (UniProt P16234)
PAK3 (human) = PAK3 (human) (UniProt O75914)
AKT1 (human) = AKT1 (human) (UniProt P31749)
TEC (human) = TEC (human) (UniProt P42680)
MELK (human) = MELK (human) (UniProt Q14680)
PIM3 (human) = PIM3 (human) (UniProt Q86V86)
DAPK2 (human) = DAPK2 (human) (UniProt Q9UIK4)
JAK3 JH1 JH2 (human) = JAK3 JH1 JH2 (human) (UniProt P52333)
ITK (human) = ITK (human) (UniProt Q08881)

Chain of MAPKAPK2 (human) (P49137 whole entry, looked up): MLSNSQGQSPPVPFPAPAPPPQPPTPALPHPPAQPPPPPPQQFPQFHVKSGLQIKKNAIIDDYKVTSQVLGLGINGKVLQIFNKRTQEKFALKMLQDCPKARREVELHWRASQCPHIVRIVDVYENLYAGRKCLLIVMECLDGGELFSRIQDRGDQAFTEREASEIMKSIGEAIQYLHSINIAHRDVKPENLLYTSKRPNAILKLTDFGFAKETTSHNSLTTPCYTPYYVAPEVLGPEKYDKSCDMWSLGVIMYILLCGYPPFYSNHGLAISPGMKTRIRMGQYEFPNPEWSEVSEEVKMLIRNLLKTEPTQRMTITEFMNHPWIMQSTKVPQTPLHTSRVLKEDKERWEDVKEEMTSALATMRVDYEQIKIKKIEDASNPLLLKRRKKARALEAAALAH
Chain of MAPKAPK5 (human) (Q8IW41 whole entry, looked up): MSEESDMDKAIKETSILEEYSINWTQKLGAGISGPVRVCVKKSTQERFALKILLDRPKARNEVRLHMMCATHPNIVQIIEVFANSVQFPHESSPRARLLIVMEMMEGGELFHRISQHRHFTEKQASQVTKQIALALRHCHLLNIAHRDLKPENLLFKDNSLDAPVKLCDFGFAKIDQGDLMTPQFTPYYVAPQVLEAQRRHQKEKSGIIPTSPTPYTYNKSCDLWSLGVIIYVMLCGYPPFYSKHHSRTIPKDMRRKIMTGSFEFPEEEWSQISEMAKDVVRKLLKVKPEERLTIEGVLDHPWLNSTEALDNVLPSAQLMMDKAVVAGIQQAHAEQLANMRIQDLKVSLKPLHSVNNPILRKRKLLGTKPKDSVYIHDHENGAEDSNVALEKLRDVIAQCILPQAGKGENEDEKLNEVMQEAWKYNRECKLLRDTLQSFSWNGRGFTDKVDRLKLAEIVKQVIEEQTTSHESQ
Chain of TYK2 JH1 catalytic (human) (P29597 whole entry, looked up): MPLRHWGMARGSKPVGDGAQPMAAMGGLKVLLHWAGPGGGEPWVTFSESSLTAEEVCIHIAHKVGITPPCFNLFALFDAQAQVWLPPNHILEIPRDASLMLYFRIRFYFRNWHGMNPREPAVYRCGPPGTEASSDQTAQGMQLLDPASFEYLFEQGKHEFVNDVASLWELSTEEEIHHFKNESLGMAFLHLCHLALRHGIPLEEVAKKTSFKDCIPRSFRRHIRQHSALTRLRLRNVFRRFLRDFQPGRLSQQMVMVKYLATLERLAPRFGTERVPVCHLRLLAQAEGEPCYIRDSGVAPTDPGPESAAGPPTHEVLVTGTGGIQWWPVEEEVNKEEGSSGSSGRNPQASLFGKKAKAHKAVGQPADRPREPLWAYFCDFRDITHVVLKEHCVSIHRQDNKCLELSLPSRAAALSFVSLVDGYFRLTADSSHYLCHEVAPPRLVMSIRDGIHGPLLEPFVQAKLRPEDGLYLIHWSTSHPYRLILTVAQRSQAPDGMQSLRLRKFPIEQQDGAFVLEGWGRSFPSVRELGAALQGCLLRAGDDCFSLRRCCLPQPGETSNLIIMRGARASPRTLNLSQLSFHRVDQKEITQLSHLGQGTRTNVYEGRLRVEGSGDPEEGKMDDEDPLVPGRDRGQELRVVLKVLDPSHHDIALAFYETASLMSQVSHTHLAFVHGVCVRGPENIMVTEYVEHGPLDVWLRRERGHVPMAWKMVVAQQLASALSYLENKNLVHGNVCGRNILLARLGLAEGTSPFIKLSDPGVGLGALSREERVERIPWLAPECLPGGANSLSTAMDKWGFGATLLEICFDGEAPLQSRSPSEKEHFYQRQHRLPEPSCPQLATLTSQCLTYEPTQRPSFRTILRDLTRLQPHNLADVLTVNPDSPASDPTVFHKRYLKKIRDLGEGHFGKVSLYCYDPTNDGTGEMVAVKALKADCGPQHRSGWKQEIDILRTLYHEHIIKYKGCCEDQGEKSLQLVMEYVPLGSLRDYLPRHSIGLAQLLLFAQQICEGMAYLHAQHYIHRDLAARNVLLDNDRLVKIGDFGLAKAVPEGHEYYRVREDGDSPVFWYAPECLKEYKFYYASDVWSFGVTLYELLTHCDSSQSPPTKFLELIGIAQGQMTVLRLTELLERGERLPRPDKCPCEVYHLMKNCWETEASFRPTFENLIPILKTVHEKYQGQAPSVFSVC
Chain of HIPK1 (human) (Q86Z02 whole entry, looked up): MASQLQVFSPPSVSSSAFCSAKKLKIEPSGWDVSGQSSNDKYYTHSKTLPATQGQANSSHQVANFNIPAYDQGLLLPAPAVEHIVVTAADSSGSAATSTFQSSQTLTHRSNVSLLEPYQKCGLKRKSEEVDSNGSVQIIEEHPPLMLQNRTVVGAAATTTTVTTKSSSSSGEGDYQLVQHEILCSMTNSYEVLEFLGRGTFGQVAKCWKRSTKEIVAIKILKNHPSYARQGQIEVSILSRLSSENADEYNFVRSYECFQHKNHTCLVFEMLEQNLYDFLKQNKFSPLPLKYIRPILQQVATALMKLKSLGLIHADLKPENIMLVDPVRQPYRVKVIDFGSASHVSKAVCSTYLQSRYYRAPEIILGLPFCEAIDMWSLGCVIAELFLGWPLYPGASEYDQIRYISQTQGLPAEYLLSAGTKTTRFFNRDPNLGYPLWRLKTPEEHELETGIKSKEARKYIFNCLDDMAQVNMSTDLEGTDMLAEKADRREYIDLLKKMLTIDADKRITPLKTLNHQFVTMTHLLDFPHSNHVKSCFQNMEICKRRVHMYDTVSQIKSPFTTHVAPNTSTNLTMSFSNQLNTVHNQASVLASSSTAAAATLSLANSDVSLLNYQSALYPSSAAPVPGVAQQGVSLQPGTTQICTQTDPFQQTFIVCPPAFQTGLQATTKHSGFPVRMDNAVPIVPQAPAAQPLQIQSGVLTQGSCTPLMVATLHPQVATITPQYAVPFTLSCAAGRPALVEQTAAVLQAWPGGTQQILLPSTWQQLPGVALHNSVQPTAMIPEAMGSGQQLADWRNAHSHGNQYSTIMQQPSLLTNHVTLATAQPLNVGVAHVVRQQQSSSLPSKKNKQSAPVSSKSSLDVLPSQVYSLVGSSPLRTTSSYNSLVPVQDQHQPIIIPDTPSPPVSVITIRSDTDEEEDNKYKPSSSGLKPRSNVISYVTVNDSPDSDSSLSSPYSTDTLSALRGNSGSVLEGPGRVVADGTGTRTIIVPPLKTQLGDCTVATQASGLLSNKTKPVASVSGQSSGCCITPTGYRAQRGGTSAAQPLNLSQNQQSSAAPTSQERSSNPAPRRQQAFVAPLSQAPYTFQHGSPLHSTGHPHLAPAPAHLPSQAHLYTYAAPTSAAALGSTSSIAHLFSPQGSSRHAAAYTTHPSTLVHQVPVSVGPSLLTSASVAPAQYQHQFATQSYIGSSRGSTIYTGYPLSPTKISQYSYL
Chain of DAPK2 (human) (Q9UIK4 whole entry, looked up): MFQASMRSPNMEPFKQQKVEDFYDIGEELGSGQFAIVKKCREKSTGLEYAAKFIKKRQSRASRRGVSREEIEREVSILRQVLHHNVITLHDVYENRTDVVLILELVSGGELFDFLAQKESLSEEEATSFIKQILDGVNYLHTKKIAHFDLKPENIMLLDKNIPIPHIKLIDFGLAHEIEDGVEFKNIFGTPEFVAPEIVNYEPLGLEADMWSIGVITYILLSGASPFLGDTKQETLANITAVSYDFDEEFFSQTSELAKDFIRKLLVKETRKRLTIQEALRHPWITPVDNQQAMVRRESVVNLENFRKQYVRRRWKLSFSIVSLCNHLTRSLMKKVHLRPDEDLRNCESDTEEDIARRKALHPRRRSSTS
Chain of JAK3 JH1 JH2 (human) (P52333 whole entry, looked up): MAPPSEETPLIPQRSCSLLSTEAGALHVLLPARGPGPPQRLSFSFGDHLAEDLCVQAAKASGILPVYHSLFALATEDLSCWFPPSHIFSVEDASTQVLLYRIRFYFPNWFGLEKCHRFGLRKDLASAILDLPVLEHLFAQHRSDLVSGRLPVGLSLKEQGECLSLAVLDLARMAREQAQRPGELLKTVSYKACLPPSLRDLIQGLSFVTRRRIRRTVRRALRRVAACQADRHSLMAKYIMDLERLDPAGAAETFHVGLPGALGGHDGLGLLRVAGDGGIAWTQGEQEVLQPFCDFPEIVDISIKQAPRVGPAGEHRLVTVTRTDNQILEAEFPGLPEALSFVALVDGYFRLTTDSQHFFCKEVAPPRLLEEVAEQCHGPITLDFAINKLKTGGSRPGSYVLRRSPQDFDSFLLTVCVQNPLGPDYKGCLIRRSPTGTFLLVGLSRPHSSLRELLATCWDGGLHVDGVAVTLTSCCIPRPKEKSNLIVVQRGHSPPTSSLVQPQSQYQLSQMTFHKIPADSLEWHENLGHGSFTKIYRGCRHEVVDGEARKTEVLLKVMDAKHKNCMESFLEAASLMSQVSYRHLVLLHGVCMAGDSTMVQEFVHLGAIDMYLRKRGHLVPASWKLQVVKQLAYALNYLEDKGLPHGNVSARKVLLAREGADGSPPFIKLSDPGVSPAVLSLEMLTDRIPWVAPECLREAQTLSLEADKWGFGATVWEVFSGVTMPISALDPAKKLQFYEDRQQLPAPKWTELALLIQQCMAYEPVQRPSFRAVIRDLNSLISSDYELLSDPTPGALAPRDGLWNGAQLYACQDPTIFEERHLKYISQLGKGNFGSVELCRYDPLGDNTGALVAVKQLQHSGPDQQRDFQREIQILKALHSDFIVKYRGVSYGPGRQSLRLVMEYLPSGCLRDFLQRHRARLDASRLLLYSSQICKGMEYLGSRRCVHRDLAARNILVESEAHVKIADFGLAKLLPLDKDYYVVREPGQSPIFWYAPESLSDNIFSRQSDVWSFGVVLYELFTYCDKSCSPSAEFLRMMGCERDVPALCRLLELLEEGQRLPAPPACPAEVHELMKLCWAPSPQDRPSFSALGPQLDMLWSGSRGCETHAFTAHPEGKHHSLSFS

## O=C(O)/C=C/c1cc(Br)c(Br)c(Br)c1Br
FLT3 (human)
  residual activity: 79%
PAK4 (human)
  residual activity: 104%
GRK7 (human)
  residual activity: 105%
DDR2 (human)
  residual activity: 94.3%
[1]
  residual activity: 110%
PDGFRB (human)
  residual activity: 96%
SLK (human)
  residual activity: 96%
MAPKAPK2 (human)
  residual activity: 91.5%
CAMKK1 (human)
  residual activity: 105%
MAPKAPK5 (human)
  residual activity: 72.6%
BLK (human)
  residual activity: 95.1%
DSTYK (human)
  residual activity: 98.2%
CDK5 CDK5R1 p25 (human)
  residual activity: 84.1%
NTRK1 (human)
  residual activity: 91.1%
CDK2 CCNA2 (human)
  residual activity: 85.6%
MAPK3 (human)
  residual activity: 110%
JAK2 JH1 JH2 (human)
  residual activity: 101%
CSNK1G3 (human)
  residual activity: 92.1%
STK11 (human)
  residual activity: 42.8%
FGFR1 (human)
  residual activity: 95.2%
PTK2 (human)
  residual activity: 94%
RPS6KA5 KD2 (human)
  residual activity: 88.3%
PRKD2 (human)
  residual activity: 71.6%
PRKCE (human)
  residual activity: 88.6%
TXK (human)
  residual activity: 98.7%
PDPK1 (human)
  residual activity: 96.2%
PHKG2 (human)
  residual activity: 98.9%
CAMK2B (human)
  residual activity: 56.1%
HIPK1 (human)
  residual activity: 99.6%
RPS6KA4 KD2 (human)
  residual activity: 103%
FES (human)
  residual activity: 88.8%
LIMK1 (human)
  residual activity: 101%
MAP2K1 (human)
  residual activity: 95.8%
PDGFRA (human)
  residual activity: 105%
PAK3 (human)
  residual activity: 100%
AKT1 (human)
  residual activity: 97.4%
TEC (human)
  residual activity: 107%
MELK (human)
  residual activity: 91%
PIM3 (human)
  residual activity: 17.7%
DAPK2 (human)
  residual activity: 104%
JAK3 JH1 JH2 (human)
  residual activity: 71.8%
ITK (human)
  residual activity: 100%

## Oc1ccc(Nc2nc(-c3ccc(Cl)cc3)cs2)cc1
FLT3 (human)
  residual activity: 99%
PAK4 (human)
  residual activity: 102%
GRK7 (human)
  residual activity: 109%
DDR2 (human)
  residual activity: 94.1%
[1]
  residual activity: 110%
PDGFRB (human)
  residual activity: 107%
SLK (human)
  residual activity: 110%
MAPKAPK2 (human)
  residual activity: 100%
CAMKK1 (human)
  residual activity: 124%
MAPKAPK5 (human)
  residual activity: 96.8%
BLK (human)
  residual activity: 100%
DSTYK (human)
  residual activity: 104%
CDK5 CDK5R1 p25 (human)
  residual activity: 85.9%
NTRK1 (human)
  residual activity: 104%
CDK2 CCNA2 (human)
  residual activity: 98.6%
MAPK3 (human)
  residual activity: 103%
JAK2 JH1 JH2 (human)
  residual activity: 101%
CSNK1G3 (human)
  residual activity: 103%
STK11 (human)
  residual activity: 91.1%
FGFR1 (human)
  residual activity: 82.5%
PTK2 (human)
  residual activity: 99.4%
RPS6KA5 KD2 (human)
  residual activity: 109%
PRKD2 (human)
  residual activity: 102%
PRKCE (human)
  residual activity: 99.6%
TXK (human)
  residual activity: 100%
PDPK1 (human)
  residual activity: 101%
PHKG2 (human)
  residual activity: 99.9%
CAMK2B (human)
  residual activity: 85.8%
HIPK1 (human)
  residual activity: 100%
RPS6KA4 KD2 (human)
  residual activity: 91.5%
FES (human)
  residual activity: 103%
LIMK1 (human)
  residual activity: 90.5%
MAP2K1 (human)
  residual activity: 90.7%
PDGFRA (human)
  residual activity: 101%
PAK3 (human)
  residual activity: 124%
AKT1 (human)
  residual activity: 106%
TEC (human)
  residual activity: 120%
MELK (human)
  residual activity: 100%
PIM3 (human)
  residual activity: 114%
DAPK2 (human)
  residual activity: 107%
JAK3 JH1 JH2 (human)
  residual activity: 92.2%
ITK (human)
  residual activity: 95.4%

## COc1cc2ncc(-c3ccccc3)nc2cc1OC
FLT3 (human)
  residual activity: 65.9%
PAK4 (human)
  residual activity: 75.9%
GRK7 (human)
  residual activity: 105%
DDR2 (human)
  residual activity: 96.9%
[1]
  residual activity: 93.9%
PDGFRB (human)
  residual activity: 87.5%
SLK (human)
  residual activity: 97.3%
MAPKAPK2 (human)
  residual activity: 85.9%
CAMKK1 (human)
  residual activity: 98.9%
MAPKAPK5 (human)
  residual activity: 88.1%
BLK (human)
  residual activity: 103%
DSTYK (human)
  residual activity: 82.7%
CDK5 CDK5R1 p25 (human)
  residual activity: 94.6%
NTRK1 (human)
  residual activity: 93.2%
CDK2 CCNA2 (human)
  residual activity: 92.9%
MAPK3 (human)
  residual activity: 97.6%
JAK2 JH1 JH2 (human)
  residual activity: 94.4%
CSNK1G3 (human)
  residual activity: 104%
STK11 (human)
  residual activity: 86.8%
FGFR1 (human)
  residual activity: 92.9%
PTK2 (human)
  residual activity: 100%
RPS6KA5 KD2 (human)
  residual activity: 91.8%
PRKD2 (human)
  residual activity: 93.8%
PRKCE (human)
  residual activity: 87.9%
TXK (human)
  residual activity: 93.4%
PDPK1 (human)
  residual activity: 92.6%
PHKG2 (human)
  residual activity: 97.1%
CAMK2B (human)
  residual activity: 93.3%
HIPK1 (human)
  residual activity: 93.4%
RPS6KA4 KD2 (human)
  residual activity: 85.4%
FES (human)
  residual activity: 105%
LIMK1 (human)
  residual activity: 77.7%
MAP2K1 (human)
  residual activity: 97.6%
PDGFRA (human)
  residual activity: 83.1%
PAK3 (human)
  residual activity: 94.7%
AKT1 (human)
  residual activity: 99.2%
TEC (human)
  residual activity: 164%
MELK (human)
  residual activity: 88.9%
PIM3 (human)
  residual activity: 87.4%
DAPK2 (human)
  residual activity: 97.3%
JAK3 JH1 JH2 (human)
  residual activity: 90.3%
ITK (human)
  residual activity: 97.8%

## O=C1NC(=O)C(c2cn(CCCO)c3ncccc23)=C1c1cnccn1
FLT3 (human)
  residual activity: 87.8%
PAK4 (human)
  residual activity: 111%
GRK7 (human)
  residual activity: 118%
DDR2 (human)
  residual activity: 94.6%
[1]
  residual activity: 96.9%
PDGFRB (human)
  residual activity: 102%
SLK (human)
  residual activity: 106%
MAPKAPK2 (human)
  residual activity: 91%
CAMKK1 (human)
  residual activity: 107%
MAPKAPK5 (human)
  residual activity: 98.6%
BLK (human)
  residual activity: 87.1%
DSTYK (human)
  residual activity: 78%
CDK5 CDK5R1 p25 (human)
  residual activity: 103%
NTRK1 (human)
  residual activity: 88.1%
CDK2 CCNA2 (human)
  residual activity: 94.8%
MAPK3 (human)
  residual activity: 94.5%
JAK2 JH1 JH2 (human)
  residual activity: 97.8%
CSNK1G3 (human)
  residual activity: 107%
STK11 (human)
  residual activity: 83.1%
FGFR1 (human)
  residual activity: 81.2%
PTK2 (human)
  residual activity: 101%
RPS6KA5 KD2 (human)
  residual activity: 73.9%
PRKD2 (human)
  residual activity: 118%
PRKCE (human)
  residual activity: 102%
TXK (human)
  residual activity: 75.3%
PDPK1 (human)
  residual activity: 92.2%
PHKG2 (human)
  residual activity: 102%
CAMK2B (human)
  residual activity: 97.6%
HIPK1 (human)
  residual activity: 84.2%
RPS6KA4 KD2 (human)
  residual activity: 101%
FES (human)
  residual activity: 121%
LIMK1 (human)
  residual activity: 96.4%
MAP2K1 (human)
  residual activity: 106%
PDGFRA (human)
  residual activity: 113%
PAK3 (human)
  residual activity: 92.9%
AKT1 (human)
  residual activity: 98.6%
TEC (human)
  residual activity: 120%
MELK (human)
  residual activity: 101%
PIM3 (human)
  residual activity: 16.7%
DAPK2 (human)
  residual activity: 88.4%
JAK3 JH1 JH2 (human)
  residual activity: 134%
ITK (human)
  residual activity: 84.7%
